According to US20050220861A1, “Colonic release compostion” (priority 2002, published 2005):
Read-outs that look alike come from different tables or passages of the source. Values belong to the molecule of their own block, whether it stands above or below them.

Legend:
[1] = human, in vivo, po
Procedure: Four phase I studies have been completed. In the first of these, an ethyl cellulose to amylose ratio of 5:1 was used with a 10% weight gain. The second and third studies, investigated the effect of a thicker coat (20% weight gain) at a 4:1 ethylcellulose to amylose ratio. All other features of the comparison formulation were the same.
(§1) Capsules containing coated pellets of prednisolone sodium metasulphobenzoate, equivalent to 60 mg prednisolone, were administered to seven healthy, fasted volunteers. Progress of the dose through the gastrointestinal tract was followed over 24 hours by gamma-scintigraphy after the co-administration of ethylcellulose coated ^111indium labelled non-pareils. Plasma levels of prednisolone were determined at various time points up to 48 hours after administration. Excreted drug pellets were harvested over five days and residual drug levels determined.
(§2) The trial comprised a combined gamma scintigraphic and pharmacokinetic study with excreted pellet analysis to the same design as the first Phase I study (above) following administration of the prednisolone sodium metasulphobenzoate ester at a dose of 94.2 mg, equivalent to 60 mg of prednisolone. In this second study, the thickness of the coating of the pellets was increased and the proportion of amylose was increased in the coat.
(§3) The trial comprised a combined gamma scintigraphic and pharmacokinetic study with excreted pellet analysis to the same design as the first Phase I study (above) following administration of prednisolone sodium metasulphobenzoate ester at a dose of 94.2 mg, equivalent to 60 mg prednisolone. In this third study, administering the coated prednisolone pellets to volunteers in the fed and fasted state was examined.
The pellets were produced as described in Example 2.
This trial used a higher dose of prednisolone sodium metasulphobenzoate, equivalent to 100 mg of prednisolone.

[2] = for drug content of the formulation released from the pellets / prednisolone sodium metasulphobenzoate retained in the excreted pellets, mean: 3rd Phase I
Procedure: as §1, §2, §3

[3] = set-up: Cmax (prednisolone) / AUC (prednisolone): unit not given beside the values; conditions: cited from earlier work
[4] = set-up: unit not given beside the values; conditions: in vivo, po, 40 mg; cited from earlier work
[5] = McIntyre et al 1985, 20 mg, rectal

AUC (prednisolone) ([1]; 60 mg): 1441 ± 541
Cmax (prednisolone) ([1]; 60 mg): 168 ± 56
AUC ([1]; 100 mg): 152 ng·mL·h
Cmax ([1]; 100 mg): 18.9 ng/mL
amount of prednisolone recovered from pellets harvested from the faeces ([2]; 1st Phase I, 60 mg oral, average of all subjects): 2.5 ± 1.12 mg
prednisolone recovered from excreted pellets, % of the administered dose ([2]; 1st Phase I, all cases): less than 5%
drug excreted in the pellets, % of the administered dose ([2]; 2nd Phase I): less than 2%
arrival of the drug pellets at the ileo-caecal junction ([2]; 2nd Phase I, amylose:ethylcellulose 1:4, 20% weight gain): 5.9 ± 2.0 h
mean quantity of drug excreted in the pellets, determined as prednisolone sodium metasulphobenzoate ([2]; 2nd Phase I, dose 94.2 mg ester): 1.7 mg
drug content of the formulation released from the pellets ([2]; fasted): over 90%
prednisolone sodium metasulphobenzoate retained in the excreted pellets, mean ([2]; fasted, dose 94.2 mg ester): 6.1 ± 1.0 mg
drug content of the formulation released from the pellets ([2]; fed): over 90%
prednisolone sodium metasulphobenzoate retained in the excreted pellets, mean ([2]; fed, dose 94.2 mg ester): 3.1 ± 1.2 mg
SMILES: C[C@]12C=CC(=O)C=C1CC[C@@H]1[C@@H]2[C@@H](O)C[C@@]2(C)[C@H]1CC[C@]2(O)C(=O)COC(=O)c1cccc(S(=O)(=O)[O-])c1.[Na+] [Prednisolone metasulphobenzoate, prednisolone sodium metasulphobenzoate]
AUC ([3]; in vivo, 60 mg): 632 ± 509 ng·mL·h
AUC (prednisolone) ([3]; in vivo, 60 mg): 632 ± 509
Cmax ([3]; in vivo, 60 mg): 147 ± 79 ng/mL
Cmax (prednisolone) ([3]; in vivo, 60 mg): 147 ± 79
AUC (prednisolone) [4]: 2189 ± 475
Cmax (prednisolone) [4]: 242 ± 58

SMILES: C[C@]12C=CC(=O)C=C1CC[C@@H]1[C@@H]2[C@@H](O)C[C@@]2(C)[C@H]1CC[C@]2(O)C(=O)COP(=O)(O)O [Prednisolone-21-phosphate]
AUC (prednisolone) [3, 5]: 599 ± 310
Cmax (prednisolone) [3, 5]: 148 ± 75
